Test results from US20110178118A1, “PALONOSETRON FOR THE TREATMENT OF CHEMOTHERAPY INDUCED EMESES” (priority 2002, published 2011).

Test system: cisplatin-induced emesis
Assay: Duration of action in cisplatin-treated dogs
Format: in vivo
Conditions: 0.04 mg/kg IV
Protocol: Mean numbers of episodes were computed and the statistical significance of differences between treatment groups were determined with Dunnett's t test. Solutions of palonosetron and comparator drugs (ondansetron and granisetron) were prepared in distilled water. Vehicle control groups received distilled water.

SMILES: CN1C2CCCC1CC(NC(=O)c1nn(C)c3ccccc13)C2 (centres unmarked) [Granisetron]
- antiemetic effect in duration of action experiments (1 to 12 hours before cisplatin): without antiemetic effect
- Emetic Episodes (mean ± SD) (1 hr pre-cisplatin 3.0 mg/kg IV): 12.33 ± 4.32
- Emetic Episodes (mean ± SD) (2 hr pre-cisplatin 3.0 mg/kg IV): 9.67 ± 4.46
- Emetic Episodes (mean ± SD) (4 hr pre-cisplatin 3.0 mg/kg IV): 13.83 ± 7.25
- Emetic Episodes (mean ± SD) (6 hr pre-cisplatin 3.0 mg/kg IV): 21.33 ± 9.54
- Emetic Episodes (mean ± SD) (8 hr pre-cisplatin 3.0 mg/kg IV): 14.67 ± 8.69
- Emetic Episodes (mean ± SD) (10 hr pre-cisplatin 3.0 mg/kg IV): 23.00 ± 5.87
- Emetic Episodes (mean ± SD) (12 hr pre-cisplatin 3.0 mg/kg IV): 15.67 ± 6.28
